Like-named read-outs stand apart in the source and are kept apart here.
Key:
[1] = target: T1, α3β3 GABAA receptors (Rattus norvegicus, UniProt P20236+P63079); design: method as in earlier work; settings: published data, ref 1 (Supplementary References), read-out: Approximate EC50; cited from earlier work
T1 construct: expressed in transfected cells; host or cells: Xenopus laevis oocytes, mRNA injected

[2] = target: T2, α2β3 GABAA receptors (Rattus norvegicus, UniProt P23576+P63079); design: method as in earlier work; settings: published data, ref 1 (Supplementary References), read-out: Approximate EC50; cited from earlier work
T2 construct: expressed in transfected cells; host or cells: Xenopus laevis oocytes, mRNA injected

[3] = target: α5β1γ2 GABAA receptors; design: method as in earlier work; settings: published data, ref 1 (Supplementary References), read-out: Approximate EC50; cited from earlier work
[4] = target: T3, α1β3 GABAA receptors (Rattus norvegicus, UniProt P62813+P63079); design: method as in earlier work; settings: published data, ref 1 (Supplementary References), read-out: Approximate EC50; cited from earlier work
T3 construct: expressed in transfected cells; host or cells: Xenopus laevis oocytes, mRNA injected

[5] = target: α5β2γ2 GABAA receptors; design: method as in earlier work; settings: published data, ref 1 (Supplementary References), read-out: Approximate EC50; cited from earlier work
[6] = target: α2β2γ2 GABAA receptors; design: method as in earlier work; settings: published data, ref 1 (Supplementary References), read-out: Approximate EC50; cited from earlier work
[7] = target: T4, α5β3 GABAA receptors (Rattus norvegicus, UniProt P19969+P63079); design: method as in earlier work; settings: published data, ref 1 (Supplementary References), read-out: Approximate EC50; cited from earlier work
T4 construct: expressed in transfected cells; host or cells: Xenopus laevis oocytes, mRNA injected

[8] = target: T5, α3β3γ2 GABAA receptors (Rattus norvegicus, UniProt P20236+P63079); design: method as in earlier work; settings: published data, ref 1 (Supplementary References), read-out: Approximate EC50; cited from earlier work
T5 construct: expressed in transfected cells; host or cells: Xenopus laevis oocytes, mRNA injected

[9] = target: T6, α1β3γ2 GABAA receptors (Rattus norvegicus, UniProt P62813+P63079); design: method as in earlier work; settings: published data, ref 1 (Supplementary References), read-out: Approximate EC50; cited from earlier work
T6 construct: expressed in transfected cells; host or cells: Xenopus laevis oocytes, mRNA injected

[10] = target: α3β2γ2 GABAA receptors; design: method as in earlier work; settings: published data, ref 1 (Supplementary References), read-out: Approximate EC50; cited from earlier work
[11] = target: α2β1γ2 GABAA receptors; design: method as in earlier work; settings: published data, ref 1 (Supplementary References), read-out: Approximate EC50; cited from earlier work
[12] = target: T7, α6β3γ2 GABAA receptors (Rattus norvegicus, UniProt P30191+P63079); design: method as in earlier work; settings: published data, ref 1 (Supplementary References), read-out: Approximate EC50; cited from earlier work
T7 construct: expressed in transfected cells; host or cells: Xenopus laevis oocytes, mRNA injected

[13] = target: α1β2γ2 GABAA receptors; design: method as in earlier work; settings: published data, ref 1 (Supplementary References), read-out: Approximate EC50; cited from earlier work
[14] = target: T8, α1β1δ GABAA receptors (Rattus norvegicus, UniProt P15431+P62813); assay: Two electrode voltage clamp in Xenopus laevis oocytes, α1β1δ; type: cell-based; settings: α1β1δ
T8 construct: expressed in transfected cells; host or cells: Xenopus laevis oocytes, mRNA injected
Source text: cDNA’s of rat GABAA receptor subunits α1, α4, β1, β2, β3 and γ2S were cloned as described. cDNAs of the rat subunits α2, α3 and α5 were gifts from P. Malherbe, that of α6 and γ1 were gifts of P. Seeburg and that of δ was a gift of C. Czajkowski. The mutants were constructed using the Q5 Site-Directed Mutagenesis Kit (New England Biolabs) following manufacturer’s instruction. We used the wild-type rat β3-pCI vector as template and the primers […] and […] resulting in a substitution of amino acid N41 (AAC) to R (AGG). We used the wild-type rat β1-pCI vector as template and the primers […] and […] resulting in a substitution of amino acid R41 (CGG) to N (AAC). The mutated subunits were confirmed by sequencing.
In vitro transcription of mRNA was based on the cDNA expression vectors encoding for rat GABAA receptor subunits α1–6, β1-3, γ1,2, δ and the two β mutants (β1R41N and β3N41R)[40]. After linearizing the cDNA vectors with appropriate restriction endonucleases, the cDNA was purified and concentrated with the DNA Clean and Contentrator ^TM Kit (Zymoresearch, Catalog No. D4005). Capped transcripts of the purified cDNA were produced using the mMESSAGE mMACHINE® T7 transcription kit (Ambion, TX, USA) and polyadenylated using the Ambion PolyA tailing kit (Ambion). After transcription and polyadenylation the RNA was purified with the MEGAclear ^TM Kit (Ambion, Catalog No. AM1908). The final RNA concentration was measured on NanoDrop® ND-1000 and finally diluted and stored in diethylpyrocarbonate-treated water at −80 °C. For the microinjection, the RNA of αβ receptor combinations was mixed at 1:1 ratio (which leads to αβ receptors that consist of predominantly 3 beta and 2 alpha subunits[27]), for αkβlγm (k = 1–3, l = 1, 3, m = 1, 2) receptors at 1:1:5 ratio, for αkβ3γ2 (k = 4–6) and αkβlδ (k = 1, 4 and 6, l = 1, 3) receptor combinations at 3:1:5 ratio.
Mature female Xenopus laevis (Nasco, WI) were anesthetized in a bath of ice-cold 0.17% Tricain (Ethyl-m-aminobenzoate, Sigma, MO) before decapitation in full accordance with all rules of the Austrian animal protection law (see http://www.ris.bka.gv.at/Dokumente/BgblAuth/BGBLA_2012_I_114/BGBLA_2012_I_114.pdf) and the Austrian animal experiment by-laws (see https://www.ris.bka.gv.at/Dokumente/BgblAuth/BGBLA_2012_II_522/BGBLA_2012_II_522.pdf) which implement the European Directive 2010/63/EU (see http://eur-lex.europa.eu/LexUriServ/LexUriServ.do?uri=OJ:L:2010:276:0033:0079:en:PDF) into the Austrian law (all information accessed on July 27, 2016). The frog’s ovaries were transferred to ND96 medium (96 mM NaCl, 2 mM KCl, 1 mM MgCl2, 5 mM HEPES; pH 7.5). Stage 5–6 oocytes with the follicle cell layer around them were roughly dissected with forceps into packages of 10–15 cells and washed in Ca^2+-free ND96 medium. Cells were then digested with collagenase (type IA, Sigma, NO, 1 mg/mL ND96) at 18 °C shaking at 30 rpm for 30–60 minutes and gently defolliculated with the aid of a glass pipette with appropriate tip diameter and a platinum loop. Defolliculated cells were stored at 18 °C for at least 6 hours in ND96 solution containing penicillin G (10000 IU/100 mL) and streptomycin (10 mg/100 mL) in order to preselect and exclude damaged cells from further treatment. Healthy defolliculated oocytes were injected with an aqueous solution of mRNA. A total of 4.5 ng of mRNA per oocyte was injected with a Nanoject II (Drummond). After injection of mRNA, oocytes were incubated at 18 °C (ND96 + antibiotic) for 2–3 days for αβ receptors and for 3–4 days for αβγ or αβδ receptors before recording. When cells were measured at later time points, oocytes were stored at +4 °C instead of 18 °C.
For electrophysiological recordings, oocytes were placed on a nylon-grid in a bath of Ca^2+-containing NDE solution medium [96 mM NaCl, 5 mM HEPES-NaOH (pH 7.5), 2 mM KCl, 1 mM MgCl2, 1.8 mM CaCl2].

T8 sequence (P62813 28-455): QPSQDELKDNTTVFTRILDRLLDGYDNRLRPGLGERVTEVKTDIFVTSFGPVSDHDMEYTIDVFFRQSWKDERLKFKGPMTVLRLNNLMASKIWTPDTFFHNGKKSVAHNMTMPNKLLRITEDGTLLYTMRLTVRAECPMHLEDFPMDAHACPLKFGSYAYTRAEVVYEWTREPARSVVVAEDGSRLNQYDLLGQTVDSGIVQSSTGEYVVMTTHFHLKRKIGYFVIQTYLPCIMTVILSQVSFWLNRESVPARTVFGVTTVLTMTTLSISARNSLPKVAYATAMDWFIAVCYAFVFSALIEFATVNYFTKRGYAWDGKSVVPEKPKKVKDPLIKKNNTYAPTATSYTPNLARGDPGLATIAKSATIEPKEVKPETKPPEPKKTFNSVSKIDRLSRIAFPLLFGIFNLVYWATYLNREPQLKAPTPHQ
T8 sequence (P15431 26-474): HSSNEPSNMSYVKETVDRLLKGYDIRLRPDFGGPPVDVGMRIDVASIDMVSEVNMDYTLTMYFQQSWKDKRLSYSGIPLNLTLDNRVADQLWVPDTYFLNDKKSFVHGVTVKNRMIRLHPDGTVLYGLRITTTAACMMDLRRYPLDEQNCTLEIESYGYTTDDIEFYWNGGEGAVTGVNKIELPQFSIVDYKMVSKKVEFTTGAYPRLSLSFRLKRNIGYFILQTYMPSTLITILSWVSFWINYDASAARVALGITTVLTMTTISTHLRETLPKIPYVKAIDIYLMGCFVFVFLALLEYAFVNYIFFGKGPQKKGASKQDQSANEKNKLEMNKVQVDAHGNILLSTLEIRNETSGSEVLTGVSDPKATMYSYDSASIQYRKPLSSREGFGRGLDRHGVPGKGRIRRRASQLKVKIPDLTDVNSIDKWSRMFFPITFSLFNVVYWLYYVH
T8 sequence (P18506 17-449 partner limits assumed): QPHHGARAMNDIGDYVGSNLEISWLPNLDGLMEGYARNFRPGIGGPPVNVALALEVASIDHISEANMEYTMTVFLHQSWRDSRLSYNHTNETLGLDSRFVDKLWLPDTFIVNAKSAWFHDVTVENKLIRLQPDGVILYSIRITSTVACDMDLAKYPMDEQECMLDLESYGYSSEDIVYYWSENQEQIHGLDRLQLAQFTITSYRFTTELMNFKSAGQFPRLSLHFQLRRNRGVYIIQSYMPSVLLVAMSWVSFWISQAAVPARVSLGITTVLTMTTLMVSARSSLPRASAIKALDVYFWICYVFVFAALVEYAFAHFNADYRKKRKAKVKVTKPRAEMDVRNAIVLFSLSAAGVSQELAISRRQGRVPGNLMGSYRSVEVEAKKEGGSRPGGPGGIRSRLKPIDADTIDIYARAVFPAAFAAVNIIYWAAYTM
T7 sequence (P30191 20-453): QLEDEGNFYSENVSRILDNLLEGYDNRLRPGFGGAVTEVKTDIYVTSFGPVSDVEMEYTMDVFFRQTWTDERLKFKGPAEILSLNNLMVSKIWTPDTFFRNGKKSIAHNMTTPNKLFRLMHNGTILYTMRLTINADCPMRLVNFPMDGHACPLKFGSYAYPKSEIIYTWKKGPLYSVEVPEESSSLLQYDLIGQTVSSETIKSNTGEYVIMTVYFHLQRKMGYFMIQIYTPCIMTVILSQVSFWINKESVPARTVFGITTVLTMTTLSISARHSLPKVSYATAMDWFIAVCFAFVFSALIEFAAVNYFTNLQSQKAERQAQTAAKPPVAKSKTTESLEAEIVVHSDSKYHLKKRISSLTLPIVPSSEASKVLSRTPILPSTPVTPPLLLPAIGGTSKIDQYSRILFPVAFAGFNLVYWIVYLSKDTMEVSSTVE
T7 sequence (P63079 26-473): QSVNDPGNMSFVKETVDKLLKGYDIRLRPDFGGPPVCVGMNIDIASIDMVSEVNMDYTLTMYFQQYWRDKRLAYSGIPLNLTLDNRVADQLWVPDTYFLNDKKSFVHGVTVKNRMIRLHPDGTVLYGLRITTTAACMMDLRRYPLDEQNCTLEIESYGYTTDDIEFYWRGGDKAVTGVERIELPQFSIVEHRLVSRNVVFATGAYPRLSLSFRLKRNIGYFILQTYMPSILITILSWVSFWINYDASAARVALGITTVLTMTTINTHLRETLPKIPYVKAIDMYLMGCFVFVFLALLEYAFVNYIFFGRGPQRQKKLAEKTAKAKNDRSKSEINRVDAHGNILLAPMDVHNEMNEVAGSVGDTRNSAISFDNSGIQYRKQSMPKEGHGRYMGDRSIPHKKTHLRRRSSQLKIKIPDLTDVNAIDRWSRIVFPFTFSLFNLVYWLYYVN
T7 sequence (P18508 39-466 partner): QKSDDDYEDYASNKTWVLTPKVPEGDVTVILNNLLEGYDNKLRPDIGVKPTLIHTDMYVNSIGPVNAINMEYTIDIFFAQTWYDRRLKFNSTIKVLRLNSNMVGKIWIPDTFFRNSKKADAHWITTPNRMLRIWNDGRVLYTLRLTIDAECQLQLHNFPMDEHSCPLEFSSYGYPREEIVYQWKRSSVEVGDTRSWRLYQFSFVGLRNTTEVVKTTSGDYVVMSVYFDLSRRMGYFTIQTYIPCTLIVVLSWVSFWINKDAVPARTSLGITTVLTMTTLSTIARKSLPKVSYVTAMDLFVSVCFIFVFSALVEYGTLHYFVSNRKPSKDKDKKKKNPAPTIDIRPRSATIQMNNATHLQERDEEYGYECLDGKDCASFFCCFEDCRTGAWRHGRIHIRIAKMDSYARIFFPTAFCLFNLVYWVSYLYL
T5 sequence (P20236 29-493): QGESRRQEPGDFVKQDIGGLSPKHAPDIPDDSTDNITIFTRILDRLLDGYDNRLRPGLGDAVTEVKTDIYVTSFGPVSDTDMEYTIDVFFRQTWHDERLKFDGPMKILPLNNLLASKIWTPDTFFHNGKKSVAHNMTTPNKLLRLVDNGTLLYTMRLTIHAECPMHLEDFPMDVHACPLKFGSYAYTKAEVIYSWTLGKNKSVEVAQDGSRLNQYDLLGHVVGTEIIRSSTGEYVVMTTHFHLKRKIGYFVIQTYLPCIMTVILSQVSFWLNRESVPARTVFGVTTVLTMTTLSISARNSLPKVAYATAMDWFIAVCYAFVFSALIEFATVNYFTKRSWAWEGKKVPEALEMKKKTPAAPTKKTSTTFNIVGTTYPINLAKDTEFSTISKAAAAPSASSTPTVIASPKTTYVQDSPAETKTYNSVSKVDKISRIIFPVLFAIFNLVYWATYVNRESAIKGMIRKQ
T5 sequence (P63079 26-473): as the sequence (P63079 26-473) above
T5 sequence (P18508 39-466 partner): as the sequence (P18508 39-466 partner) above
T1 sequence (P20236 29-493): as the sequence (P20236 29-493) above
T1 sequence (P63079 26-473): as the sequence (P63079 26-473) above
T6 sequence (P62813 28-455): as the sequence (P62813 28-455) above
T6 sequence (P63079 26-473): as the sequence (P63079 26-473) above
T6 sequence (P18508 39-466 partner): as the sequence (P18508 39-466 partner) above
T3 sequence (P62813 28-455): as the sequence (P62813 28-455) above
T3 sequence (P63079 26-473): as the sequence (P63079 26-473) above
T4 sequence (P19969 32-464 limits assumed): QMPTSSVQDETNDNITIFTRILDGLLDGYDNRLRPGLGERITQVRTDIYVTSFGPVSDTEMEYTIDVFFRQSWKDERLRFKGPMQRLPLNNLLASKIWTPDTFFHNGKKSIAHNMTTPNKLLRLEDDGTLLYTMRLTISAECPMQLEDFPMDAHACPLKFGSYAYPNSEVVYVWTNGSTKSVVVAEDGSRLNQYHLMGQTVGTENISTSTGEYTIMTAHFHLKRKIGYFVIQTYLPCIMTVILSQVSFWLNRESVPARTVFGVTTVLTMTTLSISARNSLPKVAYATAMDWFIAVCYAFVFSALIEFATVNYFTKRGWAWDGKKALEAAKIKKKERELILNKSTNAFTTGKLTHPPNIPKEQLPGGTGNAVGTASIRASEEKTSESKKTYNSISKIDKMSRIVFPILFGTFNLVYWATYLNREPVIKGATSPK
T4 sequence (P63079 26-473): as the sequence (P63079 26-473) above
T2 sequence (P23576 29-451): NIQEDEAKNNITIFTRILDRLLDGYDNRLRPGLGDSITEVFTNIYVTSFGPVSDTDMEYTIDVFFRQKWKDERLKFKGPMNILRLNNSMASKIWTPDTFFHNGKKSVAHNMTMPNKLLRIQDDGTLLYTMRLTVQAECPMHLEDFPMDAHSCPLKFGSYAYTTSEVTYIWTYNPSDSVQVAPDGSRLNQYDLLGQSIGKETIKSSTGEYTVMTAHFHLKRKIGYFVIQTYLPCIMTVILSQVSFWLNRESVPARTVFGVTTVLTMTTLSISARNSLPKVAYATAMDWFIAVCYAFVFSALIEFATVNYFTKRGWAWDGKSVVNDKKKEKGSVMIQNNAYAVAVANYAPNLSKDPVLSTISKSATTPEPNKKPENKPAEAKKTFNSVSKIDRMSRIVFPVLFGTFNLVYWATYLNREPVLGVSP
T2 sequence (P63079 26-473): as the sequence (P63079 26-473) above

SMILES: COc1ccc(-n2nc3c4cc(Cl)ccc4[nH]cc-3c2=O)cc1 [Compound 1, 8-Chloro-2-(4-methoxyphenyl)-2H-pyrazolo[4,3-c]quinolin-3(5H)-one]
- EC50 [1]: ~1800 nM
- EC50 [2]: ~3000 nM
- EC50 [3]: ~50 nM
- EC50 [4]: ~1600 nM
- EC50 [5]: ~3000 nM
- EC50 [6]: ~3500 nM
- EC50 [7]: ~600 nM
- EC50 [8]: ~1500 nM
- EC50 [9]: ~1800 nM
- EC50 [10]: ~2100 nM
- EC50 [11]: ~50 nM
- EC50 [12]: ~3300 nM
- EC50 [13]: ~1900 nM
- activity at 0.01 µM ([14]; read-out: efficacy, % of control current (GABA EC3-5 = 100%), 10 nM): 126 ± 5.6%
- activity at 0.03 µM ([14]; read-out: efficacy, % of control current (GABA EC3-5 = 100%), 30 nM): 192 ± 21.1%
- activity at 10 µM ([14]; read-out: efficacy, % of control current (GABA EC3-5 = 100%), 10 µM): 294 ± 11.1%
- Hill slope (nH) [14]: 0.8±0.2
- EC50 ([14]; co-applied with GABA EC3-5, read-out: EC50): 70 nM
- EC50 ([14]; log of EC50, sign as printed, read-out: LogEC50 (converted)): 100 nM

Reference: paper PMC5516028, “Molecular tools for GABAA receptors: High affinity ligands for β1-containing subtypes” (Scientific Reports, 2017)
